Article PMC5078989, “Targeted inhibition of the COP9 signalosome for treatment of cancer” (Nature Communications, 2016)

System: panel of cancer cell lines
Assay: Cell viability (CellTiter-Glo) dose-response across cancer cell line panel;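 as to EC50: after 72 h compound incubation with CellTiter-Glo ATP readout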
Format: cell-based, human
Conditions: for EC50: Homo sapiens
Text: Next, we explored the effect of CSN5 inhibition on the viability of cancer cells. To obtain a comprehensive picture, we generated dose–response curves with a CSN5 inhibitor across more than 500 cancer cell lines in a previously described standardized setting[47] (Supplementary Data 1).
A standardized CellTiter-Glo Assay (Promega #G7570) based on the quantification of ATP was applied according to the manufacturer's protocol to measure the amount of viable cells in culture. In brief, cells were seeded into 384-well plates at optimal density for each cell line. After 4 h, compounds were added at different concentrations in growth medium and incubated for another 72 h in a humidifying chamber at 37 °C and 5% CO2. […] EC50 values were calculated from the plot of percentage of inhibition versus inhibitor concentration using the nonlinear regression analysis software Origin 7.5SR6 (OriginLab Corp.).

For `COCc1ccccc1NCc1ccc([C@@H]2[C@H](O)CCCc3cncn32)c(-c2ccccc2Cl)c1` [CSN5i-2e, (5R,6R)-5-(2′-chloro-5-(((2-(methoxymethyl)phenyl)amino)methyl)-[1,1′-biphenyl]-2-yl)-6,7,8,9-tetrahydro-5H-imidazo[1,5-a]azepin-6-ol], the AMAX (59M cells) was -44.1889, the AMAX (92.1 cells) was -96.1867 and the AMAX (A101D cells) was -85.3496. It also gave an AMAX (A2780 cells) of -96.2609, an AMAX (A-704 cells) of -60.7987 and an AMAX (ABC-1 cells) of -95.9302. For the same compound, the AMAX (AM-38 cells) was -94.7284, the AMAX (AsPC-1 cells) was -87.4169 and the AMAX (BFTC-909 cells) was -56.5002. For the same compound, the AMAX (BICR 6 cells) was -77.6622, the AMAX (BICR 16 cells) was -89.8558 and the AMAX (Calu-6 cells) was -67.9674. The AMAX (DU4475 cells) was -97.6355, the AMAX (EFM-192A cells) was -84.5576 and the AMAX (FaDu cells) was -85.1498. It also gave an AMAX (GP2d cells) of -5.479, an AMAX (HARA cells) of -90.816 and an AMAX (HCC1143 cells) of -51.336. For the same compound, the AMAX (HCC1187 cells) was -85.4618, the AMAX (HD-MY-Z cells) was -75.4546 and the AMAX (HEC-151 cells) was -93.7534. It also gave an AMAX (HEL cells) of -96.2302, an AMAX (HL-60 cells) of -99.3648 and an AMAX (HLC-1 cells) of -73.0832. The AMAX (HLE cells) was -72.0117, the AMAX (HLF cells) was -45.3286 and the AMAX (HSC-4 cells) was -74.8911. The AMAX (HT-29 cells) was -73.0471, the AMAX (HUP-T4 cells) was -52.1939 and the AMAX (Hep3B cells) was -93.3733. For the same compound, the EC50 (59M, 59M cells) was > 30 µM, the EC50 (92.1 cells) was 14.4 µM and the EC50 (639-V, 639-V cells) was 23 µM. It also gave an EC50 (697 cells) of 9.5 µM, an EC50 (769-P, 769-P cells) of 12.8 µM and an EC50 (786-0, 786-O cells) of 6.26 µM. The EC50 (1321-N1, 1321N1 cells) was 12.9 µM, the EC50 (8505C, 8505C cells) was 8.9 µM and the EC50 (A4/Fuk cells) was 14.5 µM. It also gave an EC50 (A101D, A101D cells) of 9.82 µM, an EC50 (A204, A-204 cells) of 15.2 µM and an EC50 (A498, A-498 cells) of 13.7 µM. For the same compound, the EC50 (A549, A549 cells) was 10.6 µM, the EC50 (A673, A-673 cells) was 14.4 µM and the EC50 (A2058, A2058 cells) was 23.5 µM. The EC50 (A2780, A2780 cells) was 8.53 µM, the EC50 (A-375, A-375 cells) was 10.4 µM and the EC50 (ABC-1, ABC-1 cells) was 3.6 µM. For the same compound, the EC50 (ACC-MESO-1, ACC-MESO-1 cells) was > 30 µM, the EC50 (AM-38, AM-38 cells) was 11.9 µM and the EC50 (AML-193 cells) was 18.9 µM. For the same compound, the EC50 (AN3-CA, AN3 CA cells) was > 30 µM, the EC50 (ASPC1, AsPC-1 cells) was 13.4 µM and the EC50 (BC-3C cells) was 8.14 µM. For the same compound, the EC50 (BEN cells) was 10.5 µM, the EC50 (BFTC-909, BFTC-909 cells) was 13.2 µM and the EC50 (BHY cells) was 12.8 µM. For the same compound, the EC50 (BICR 6 cells) was 9.82 µM, the EC50 (BICR 16 cells) was 11.1 µM and the EC50 (BICR 18 cells) was > 30 µM. For the same compound, the EC50 (BICR 31 cells) was 19.6 µM, the EC50 (BT-16, BT-16 cells) was 18.3 µM and the EC50 (BT-474, BT-474 cells) was 11.4 µM. It also gave an EC50 (BT-549, BT-549 cells) of 19.4 µM, an EC50 (C3A, C3A cells) of 9.64 µM and an EC50 (CAKI-2, Caki-2 cells) of 11.3 µM. It also gave an EC50 (CAL-12T, CAL-12T cells) of 8.27 µM, an EC50 (CAL-27, CAL 27 cells) of 12 µM and an EC50 (CAL-29 cells) of 11.8 µM. The EC50 (CAL-85-1, CAL-85-1 cells) was 18.6 µM, the EC50 (CAL-120, CAL-120 cells) was 9.09 µM and the EC50 (CAL-148, CAL-148 cells) was 9.65 µM. The EC50 (CAMA-1, CAMA-1 cells) was 10.9 µM, the EC50 (CAPAN-1, Capan-1 cells) was 7.41 µM and the EC50 (CCRF-HSB-2, CCRF-HSB-2 cells) was 4.36 µM. For the same compound, the EC50 (CEM/C1, CEMC1 cells) was 6.88 µM, the EC50 (CFPAC-1, CFPAC-1 cells) was 11.4 µM and the EC50 (CL-14 cells) was 11.1 µM. It also gave an EC50 (CL-34 cells) of 11.1 µM, an EC50 (CMK, CMK cells) of 8.18 µM and an EC50 (CMK-86, CMK-86 cells) of 7.36 µM. The EC50 (COLO 201, COLO 201 cells) was 12.6 µM, the EC50 (COLO 205, COLO 205 cells) was 11.6 µM and the EC50 (COLO 320, COLO-320 cells) was 8.29 µM. For the same compound, the EC50 (COLO 699, COLO-699 cells) was 10.1 µM, the EC50 (COLO 704, COLO-704 cells) was 12.6 µM and the EC50 (COLO-678, COLO-678 cells) was 16.6 µM. It also gave an EC50 (COLO-679, COLO-679 cells) of 13.6 µM, an EC50 (COLO-741, COLO 741 cells) of 27.1 µM and an EC50 (COLO-829, COLO 829 cells) of 11.6 µM. For the same compound, the EC50 (COR-L23, COR-L23 cells) was 8.42 µM, the EC50 (COR-L105, COR-L105 cells) was 13.1 µM and the EC50 (COV362, COV362 cells) was 10.6 µM. It also gave an EC50 (CW-2, CW-2 cells) of 9.62 µM, an EC50 (Calu-6, Calu-6 cells) of 9.62 µM and an EC50 (ChaGo-K-1, ChaGo-K-1 cells) of 12.7 µM. The EC50 (Ci-1, CI-1 cells) was 2.87 µM, the EC50 (DB, DB cells) was 8.52 µM and the EC50 (DLD-1, DLD-1 cells) was > 30 µM. For the same compound, the EC50 (DMS-53, DMS 53 cells) was 17.9 µM, the EC50 (DMS-273, DMS 273 cells) was 9.95 µM and the EC50 (DND41, DND-41 cells) was 12.6 µM. The EC50 (DU-4475, DU4475 cells) was 14.8 µM, the EC50 (EBC-1, EBC-1 cells) was 17.8 µM and the EC50 (EFM-19, EFM-19 cells) was 13.1 µM. The EC50 (EFM-192A, EFM-192A cells) was 6.13 µM, the EC50 (EOL1, EOL-1 cells) was 3.43 µM and the EC50 (FaDu, FaDu cells) was 10.2 µM. It also gave an EC50 (Fu97, FU97 cells) of 8.56 µM, an EC50 (G-401, G-401 cells) of 7.91 µM and an EC50 (G-402, G-402 cells) of 11.3 µM. For the same compound, the EC50 (GAMG, GAMG cells) was > 30 µM, the EC50 (GDM-1, GDM-1 cells) was 9.32 µM and the EC50 (GI-1, GI-1 cells) was 15.6 µM. The EC50 (GP2d, GP2d cells) was > 30 µM, the EC50 (HARA cells) was 14.2 µM and the EC50 (HCC15, HCC-15 cells) was 23 µM. The EC50 (HCC44, HCC-44 cells) was 5.76 µM, the EC50 (HCC70, HCC70 cells) was 13.3 µM and the EC50 (HCC95, HCC-95 cells) was 15 µM. For the same compound, the EC50 (HCC827, HCC827 cells) was 15.5 µM, the EC50 (HCC1143, HCC1143 cells) was 11.1 µM and the EC50 (HCC1187, HCC1187 cells) was 10.7 µM. It also gave an EC50 (HCC1500, HCC1500 cells) of 11.7 µM, an EC50 (HCC1588, HCC-1588 cells) of 7.61 µM and an EC50 (HCC1806, HCC1806 cells) of 22.7 µM. The EC50 (HCC1954, HCC1954 cells) was 15.3 µM and the EC50 (HCC-56 cells) was 18.5 µM.
